What follows are molecules tested against T1, endothelial lipase (EL) (Homo sapiens, UniProt Q9Y5X9) (assay: Endothelial lipase (EL) enzymatic assay with fluorescent substrate A10070 in DMPG vesicles). Conditions: conditioned media from HT-1080 cells overexpressing endogenous EL, 20 min preincubation at 37° C.
T1 construct: transformed by RAGE technology (Athersys) to overexpress endogenous EL; endogenous in cells; conditioned medium used as the enzyme source
T1 sequence (Q9Y5X9 21-500): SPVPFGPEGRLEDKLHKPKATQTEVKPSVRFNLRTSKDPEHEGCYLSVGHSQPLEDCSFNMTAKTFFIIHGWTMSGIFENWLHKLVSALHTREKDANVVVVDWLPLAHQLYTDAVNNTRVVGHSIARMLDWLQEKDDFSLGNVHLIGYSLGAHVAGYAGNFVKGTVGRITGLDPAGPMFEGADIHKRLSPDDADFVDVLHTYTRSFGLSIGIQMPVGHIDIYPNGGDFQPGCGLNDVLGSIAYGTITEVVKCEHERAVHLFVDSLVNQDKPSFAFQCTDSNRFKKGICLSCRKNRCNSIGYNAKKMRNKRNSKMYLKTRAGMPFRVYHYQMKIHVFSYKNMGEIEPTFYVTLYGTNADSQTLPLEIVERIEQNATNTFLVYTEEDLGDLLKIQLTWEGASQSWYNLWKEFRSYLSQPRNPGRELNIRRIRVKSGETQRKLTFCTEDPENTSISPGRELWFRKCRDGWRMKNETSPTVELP
Format: biochemical
Description: Endothelial lipase activity was measured using a fluorescent substrate, A10070, (Invitrogen, CA) doped into an artificial vesicle containing DMPG (Avanti Polar Lipids) as the excipient. Vesicles were prepared by combining 285 μL of 1 mM DMPG in a 1:1 mixture of MeOH and CHCl3 with 15 μL of 1 mM A10070 in a 1:1 mixture of MeOH and CHCl3. The mixture was dried under nitrogen and resuspended in 150 μL of 50 mM HEPES pH 8.0 buffer containing 100 mM NaCl and 0.2 mM EDTA. The sample was allowed to sit at rt for 15 min and then was sonicated 3×4 mins on ice with a Branson Sonicator using duty cycle 1. This preparation provides vesicles with a mole fraction of 0.05 for the FRET substrate.
The enzymatic assay was measured using white, opaque 96-well half area plates. Each well contained 60 μL of assay buffer (50 mM HEPES pH 8.0, 50 mM NaCl and 1 mM CaCl2) and 2 ul of a DMSO solution containing compound of interest. Conditioned media obtained from HT-1080 cells, which were transformed by RAGE technology (Athersys) to overexpress endogenous EL, was added and the reaction was allowed to incubate for 20 min at 37° C. with gentle agitation. The reaction was started by the addition of 20 μL of a 1:4 dilution of vesicles. The final total reaction volume was 100 μL. The reaction rates were measured on a Gemini plate reader with an excitation wavelength of 488 nm and a emission of 530 nm. Readings were taken every 20 seconds for 10 min with agitation between each reading. The slope of the linear portion of the readout was used to calculate the rate of the reaction.
The exemplified examples disclosed in the present invention were tested in the EL assay described above and found having EL inhibitory activity. A range of EL IC50 values of ≦10 μM (10000 nM) was observed.

Point of comparison: `C[C@H](COc1c(Cl)cccc1Cl)NC(=O)c1[nH]c(=O)[nH]c(=O)c1N` [Example 54, (R)-5-amino-N-(1-(2,6-dichloro-phenoxy)propan-2-yl)-2,6-dioxo-1,2,3,6-tetra-hydropyrimidine-4-carboxamide], IC50 11 nM. Against it:
- Nc1c(C(=O)NCC2CCN(C(=O)c3ccccc3)C2)[nH]c(=O)[nH]c1=O (stereo not shown) [Example 44, 5-amino-N-((1-benzoylpyrrolidin-3-yl)methyl)-2,6-dioxo-1,2,3,6-tetrahydropyrimidine-4-carboxamide] — 280-fold higher, 3070 nM
- Nc1c(C(=O)NCc2ccc(Oc3ccccc3)cc2)[nH]c(=O)[nH]c1=O [Example 32, 5-amino-2,6-dioxo-N-(4-phenoxybenzyl)-1,2,3,6-tetrahydropyrimidine-4-carboxamide] — 64-fold higher, 703 nM
- C[C@@H](NC(=O)c1[nH]c(=O)[nH]c(=O)c1O)c1cccc(OCc2ccccc2)c1 [Example 182, (R)-N-(1-(3-(benzyloxy)phenyl)ethyl)-5-hydroxy-2,6-dioxo-1,2,3,6-tetrahydro-pyrimidine-4-carboxamide] — within 1.5-fold, 10 nM
- Nc1c(C(=O)NCc2cccc(-c3ccc(F)cc3)c2)[nH]c(=O)[nH]c1=O [Example 25, 5-amino-N-((4′-fluorobiphenyl-3-yl)methyl)-2,6-dioxo-1,2,3,6-tetrahydropyrimidine-4-carboxamide] — 390-fold higher, 4250 nM
- Nc1c(C(=O)NCCCc2ccc(Cl)c(Cl)c2)[nH]c(=O)[nH]c1=O [Example 2, 5-amino-N-(3-(3,4-dichlorophenyl)propyl)-2,6-dioxo-1,2,3,6-tetrahydropyrimidine-4-carboxamide] — 14-fold higher, 149 nM
- C[C@@H](NC(=O)c1[nH]c(=O)[nH]c(=O)c1N)c1cccc(-c2cnn(Cc3nc4ccccc4s3)c2)c1 [Example 160, (R)-5-amino-N-(1-(3-(1-(benzo[d]thiazol-2-ylmethyl)-1H-pyrazol-4-yl)phenyl)ethyl)-2,6-dioxo-1,2,3,6-tetra-hydropyrimidine-4-carboxamide] — 34-fold higher, 369 nM

— patent publication US9394260B2, “Pyrimidinone carboxamide inhibitors of endothelial lipase” (BRISTOL-MYERS SQUIBB COMPANY, priority 2012, dated 2016)
